# Measured values: article PMC9025941, “Influence of the Type of Amino Acid on the Permeability and Properties of Ibuprofenates of Isopropyl Amino Acid Esters” (International Journal of Molecular Sciences, 2022)
# Where “and” joins values, the source holds several entries; their conditions need not be identical. Equal entries are not always repeated. Where two headings read alike, the source gives them in different places. Marks after values point to notes of the source that are not given here.
# Columns and labels:
# [1] = In vitro skin permeation, Franz diffusion cells; details: for Q%24 h, the percentage of the applied dose permeated after 24 h / Cumulative Permeation Mass / LT, lag time: n = 3; for Q%24 h, the percentage of the applied dose permeated after 24 h / Cumulative Permeation Mass: 24 h; for EF, enhancement factor: relative to IBU; for JSS, steady-state flux: saturated solution in PBS pH 7.4, n = 3
# [2] = n-octanol-water partition coefficient, shake flask method; details: for Log P (n-octanol-water partition coefficient): shake flask, 25 °C
# [3] = set-up: method as in PMID 35516534; details: determined log P range; cited from earlier work
# [4] = 37 °C, cited from earlier work
# [5] = Thermal stability (TG/DTG): decomposition onset and maximum mass-loss rate temperature
# Protocol: In Figure 5, the thermal stability of ibuprofen and amino acid isopropyl ester ibuprofenates was determined and compared. All TG, DTG, and c-DTA curves are in the Supplementary Materials (Figures S87–S100). The decomposition onset temperature (Tonset) and the temperature of the maximum rate of mass loss (Tmax) were determined.
# [6] = Solubility in organic solvents by modified Vogel's method; details: 25 °C
# [7] = 24 h penetration, n = 3
# [8] = Solubility (saturation concentration) in deionised water and PBS pH 7.4, HPLC; details: for Solubility in Phosphate Buffer pH = 7.4: PBS pH 7.4, 32 °C; for Solubility in Water: 25 °C
# [9] = pH 7.4
# [10] = cited from earlier work; for Solubility in Phosphate Buffer pH = 7.4: PBS pH 7.4, 32 °C; for Solubility in Water: 25 °C
# [11] = shake flask; cited from earlier work
# [12] = 25 °C; cited from earlier work
# [13] = saturated solution in PBS pH 7.4, mass of compound
# [14] = saturated solution in PBS pH 7.4, mass of ibuprofen
SMILES,"Q%24 h, the percentage of the applied dose permeated after 24 h [1]","Cumulative Permeation Mass [1, 13]","Cumulative Permeation Mass [1, 14]","LT, lag time [1]","EF, enhancement factor [1]","JSS, steady-state flux [1]",Solubility in ethyl acetate [6],Solubility in toluene [6],Log P (n-octanol-water partition coefficient) [2],"Tonset, the onset temperature of the thermal degradation [5]",Accumulation in the skin [7],other results
"CC(C)Cc1ccc(C(C)C(=O)O)cc1 (racemic) [IBU, (RS)-2-(4-(2-methylpropyl)phenyl)propanoic acid, reference compound]",7.408 ± 0.648%,32.001 ± 3.167 ^a µg·cm^−2,32.001 ± 2.801 ^a µg IBU·cm^−2,1.399 ± 0.145 h,1.00,3.017 ± 0.209 µg IBU cm^−2 h^−1,–,–,–,–,–,"Papp ([1]; pig, pH 7.4): 1.94 ×10⁻⁶ cm/s; JSS, steady-state flux ([1]; listed as ibuprofen): 3.017 µg IBU cm^−2 h^−1; logP at 3 h ([2]; n-octanol/water): 3.208 ± 0.002; log P [3]: 2.41–4.00; solubility ([4]; pH 1): 0.038 mg·cm^−3; solubility ([4]; pH 4.5): 0.084 mg·cm^−3; solubility ([4]; pH 5.5): 0.685 mg·cm^−3; solubility ([4]; pH 6.8): 3.37 mg·cm^−3; Tonset, the onset temperature of the thermal degradation ([5]; TG): 189.8 °C"
"CC(C)Cc1ccc(C(C)C(=O)O)cc1.CC(C)OC(=O)C[C@H](N)C(=O)OC(C)C [[L-Asp(OiPr)2][IBU], L-aspartic acid isopropyl ester ibuprofenate]",27.307 ± 2.851%,812.658 ± 12.545 ^b µg·cm^−2,395.800 ± 41.320 ^b µg IBU·cm^−2,1.010 ± 0.054 h,3.69,55.063 ± 1.425 µg IBU cm^−2 h^−1,+ (soluble >100 mg cm^−3),+ (soluble >100 mg cm^−3),1.506 ± 0.001,141.7 °C,406.961 ± 17.799 µg IBU g^−1,Solubility in DMSO [6]: + (soluble >100 mg cm^−3); Solubility in chloroform [6]: + (soluble >100 mg cm^−3); Solubility in dichloromethane [6]: + (soluble >100 mg cm^−3); Solubility in diethyl ether [6]: +/− (partially soluble 33–100 mg cm^−3); Solubility in ethanol [6]: + (soluble >100 mg cm^−3); Solubility in n-hexane [6]: − (insoluble <33 mg cm^−3); Solubility in Phosphate Buffer pH = 7.4 ([8]; g of active compound (IBU)): 1.449 ± 0.009 g IBU∙dm^−3; Solubility in Phosphate Buffer pH = 7.4 ([8]; g of compound): 2.976 ± 0.018 g∙dm^−3; Solubility in Water ([8]; g of active compound (IBU)): 1.159 ± 0.001 g IBU∙dm^−3; Solubility in Water ([8]; g of compound): 2.380 ± 0.003 g∙dm^−3
"CC(C)Cc1ccc(C(C)C(=O)O)cc1.CC[C@H](C)[C@H](N)C(=O)OC(C)C [[L-IleOiPr][IBU], L-isoleucine isopropyl ester ibuprofenate]",2.318 ± 0.118%,173.888 ± 8.815 ^b µg·cm^−2,94.512 ± 4.791 ^b µg IBU·cm^−2,1.617 ± 0.057 h,0.31,9.545 µg IBU cm^−2 h^−1 and 9.545 ± 0.239 µg IBU cm^−2 h^−1,+ (soluble >100 mg cm^−3),+ (soluble >100 mg cm^−3),1.652 ± 0.008,105.2 °C,646.293 ± 123.070 µg IBU g^−1,Solubility in DMSO [6]: + (soluble >100 mg cm^−3); Solubility in chloroform [6]: + (soluble >100 mg cm^−3); Solubility in dichloromethane [6]: + (soluble >100 mg cm^−3); Solubility in diethyl ether [6]: +/− (partially soluble 33–100 mg cm^−3); Solubility in ethanol [6]: + (soluble >100 mg cm^−3); Solubility in n-hexane [6]: − (insoluble <33 mg cm^−3); Solubility in Phosphate Buffer pH = 7.4 ([8]; g of active compound (IBU)): 2.562 ± 0.010 g IBU∙dm^−3; Solubility in Phosphate Buffer pH = 7.4 ([8]; g of compound): 4.713 ± 0.018 g∙dm^−3; Solubility in Water ([8]; g of active compound (IBU)): 1.483 ± 0.098 g IBU∙dm^−3; Solubility in Water ([8]; g of compound): 2.729 ± 0.180 g∙dm^−3
"CC(C)Cc1ccc(C(C)C(=O)O)cc1.CSCC[C@H](N)C(=O)OC(C)C [[L-MetOiPr][IBU], L-methionine isopropyl ester ibuprofenate]",–,–,–,–,–,–,–,–,–,146.2 °C,–,"JSS, steady-state flux [9]: 25.312 ± 0.661 µg IBU cm^−2 h^−1"
"CC(C)Cc1ccc(C(C)C(=O)O)cc1.CC(C)OC(=O)[C@@H](N)CO [[L-SerOiPr][IBU], L-serine isopropyl ester ibuprofenate]",11.035 ± 0.500%,–,–,1.160 ± 0.081 h,1.49,66.106 µg IBU cm^−2 h^−1 and 66.106 ± 2.925 µg IBU cm^−2 h^−1,+/− (partially soluble 33–100 mg cm^−3),− (insoluble <33 mg cm^−3),0.775 ± 0.008,–,407.652 ± 74.170 µg IBU g^−1,"Tonset, the onset temperature of the thermal degradation ([5]; TG): 139.2 °C"
"CC(C)Cc1ccc(C(C)C(=O)O)cc1.CC(C)OC(=O)[C@@H](N)[C@@H](C)O [[L-ThrOiPr][IBU], L-threonine isopropyl ester ibuprofenate]",11.294 ± 0.505%,714.248 ± 38.838 ^b µg·cm^−2,400.942 ± 17.921 ^b µg IBU·cm^−2,1.339 ± 0.177 h,1.52,59.631 ± 6.900 µg IBU cm^−2 h^−1,–,–,0.998 ± 0.001,129.6 °C,621.866 ± 112.163 µg IBU g^−1,–
"CC(C)Cc1ccc(C(C)C(=O)O)cc1.CC(C)OC(=O)[C@@H](N)C(C)C [[L-ValOiPr][IBU], L-valine isopropyl ester ibuprofenate]",13.698 ± 1.123%,684.642 ± 56.109 ^b µg·cm^−2,386.391 ± 31.666 ^b µg IBU·cm^−2,–,1.85,43.749 ± 2.445 µg IBU cm^−2 h^−1,–,–,–,–,–,Solubility in Phosphate Buffer pH = 7.4 ([10]; g of active compound (IBU)): 2.821 ± 0.018 [31] g IBU∙dm^−3; Solubility in Phosphate Buffer pH = 7.4 ([10]; g of compound): 4.998 ± 0.018 [31] g∙dm^−3; Solubility in Water ([10]; g of active compound (IBU)): 1.957 ± 0.007 [31] g IBU∙dm^−3; Solubility in Water ([10]; g of compound): 3.468 ± 0.007 [31] g∙dm^−3; Log P (n-octanol-water partition coefficient) [11]: 1.154 ± 0.004 [31]; Solubility in DMSO [12]: + [31] (soluble >100 mg cm^−3); Solubility in chloroform [12]: + [31] (soluble >100 mg cm^−3); Solubility in dichloromethane [12]: + [31] (soluble >100 mg cm^−3); Solubility in diethyl ether [12]: +/− [31] (partially soluble 33–100 mg cm^−3); Solubility in ethanol [12]: + [31] (soluble >100 mg cm^−3); Solubility in ethyl acetate [12]: +/− [31] (partially soluble 33–100 mg cm^−3); Solubility in n-hexane [12]: − [31] (insoluble <33 mg cm^−3); Solubility in toluene [12]: + [31] (soluble >100 mg cm^−3)
